{"source": "patent US8541588B2", "about": "“Sulfonamide derivatives” (Pfizer Limited, priority 2009, dated 2013)", "data": [{"biological_target": "T1, Nav1.7 (or SCN9A) channel; HEK cells stably transfected with hSCN9A (Homo sapiens, UniProt Q15858)", "T1 construct": "expressed in transfected cells", "T1 sequence (Q15858 whole entry)": "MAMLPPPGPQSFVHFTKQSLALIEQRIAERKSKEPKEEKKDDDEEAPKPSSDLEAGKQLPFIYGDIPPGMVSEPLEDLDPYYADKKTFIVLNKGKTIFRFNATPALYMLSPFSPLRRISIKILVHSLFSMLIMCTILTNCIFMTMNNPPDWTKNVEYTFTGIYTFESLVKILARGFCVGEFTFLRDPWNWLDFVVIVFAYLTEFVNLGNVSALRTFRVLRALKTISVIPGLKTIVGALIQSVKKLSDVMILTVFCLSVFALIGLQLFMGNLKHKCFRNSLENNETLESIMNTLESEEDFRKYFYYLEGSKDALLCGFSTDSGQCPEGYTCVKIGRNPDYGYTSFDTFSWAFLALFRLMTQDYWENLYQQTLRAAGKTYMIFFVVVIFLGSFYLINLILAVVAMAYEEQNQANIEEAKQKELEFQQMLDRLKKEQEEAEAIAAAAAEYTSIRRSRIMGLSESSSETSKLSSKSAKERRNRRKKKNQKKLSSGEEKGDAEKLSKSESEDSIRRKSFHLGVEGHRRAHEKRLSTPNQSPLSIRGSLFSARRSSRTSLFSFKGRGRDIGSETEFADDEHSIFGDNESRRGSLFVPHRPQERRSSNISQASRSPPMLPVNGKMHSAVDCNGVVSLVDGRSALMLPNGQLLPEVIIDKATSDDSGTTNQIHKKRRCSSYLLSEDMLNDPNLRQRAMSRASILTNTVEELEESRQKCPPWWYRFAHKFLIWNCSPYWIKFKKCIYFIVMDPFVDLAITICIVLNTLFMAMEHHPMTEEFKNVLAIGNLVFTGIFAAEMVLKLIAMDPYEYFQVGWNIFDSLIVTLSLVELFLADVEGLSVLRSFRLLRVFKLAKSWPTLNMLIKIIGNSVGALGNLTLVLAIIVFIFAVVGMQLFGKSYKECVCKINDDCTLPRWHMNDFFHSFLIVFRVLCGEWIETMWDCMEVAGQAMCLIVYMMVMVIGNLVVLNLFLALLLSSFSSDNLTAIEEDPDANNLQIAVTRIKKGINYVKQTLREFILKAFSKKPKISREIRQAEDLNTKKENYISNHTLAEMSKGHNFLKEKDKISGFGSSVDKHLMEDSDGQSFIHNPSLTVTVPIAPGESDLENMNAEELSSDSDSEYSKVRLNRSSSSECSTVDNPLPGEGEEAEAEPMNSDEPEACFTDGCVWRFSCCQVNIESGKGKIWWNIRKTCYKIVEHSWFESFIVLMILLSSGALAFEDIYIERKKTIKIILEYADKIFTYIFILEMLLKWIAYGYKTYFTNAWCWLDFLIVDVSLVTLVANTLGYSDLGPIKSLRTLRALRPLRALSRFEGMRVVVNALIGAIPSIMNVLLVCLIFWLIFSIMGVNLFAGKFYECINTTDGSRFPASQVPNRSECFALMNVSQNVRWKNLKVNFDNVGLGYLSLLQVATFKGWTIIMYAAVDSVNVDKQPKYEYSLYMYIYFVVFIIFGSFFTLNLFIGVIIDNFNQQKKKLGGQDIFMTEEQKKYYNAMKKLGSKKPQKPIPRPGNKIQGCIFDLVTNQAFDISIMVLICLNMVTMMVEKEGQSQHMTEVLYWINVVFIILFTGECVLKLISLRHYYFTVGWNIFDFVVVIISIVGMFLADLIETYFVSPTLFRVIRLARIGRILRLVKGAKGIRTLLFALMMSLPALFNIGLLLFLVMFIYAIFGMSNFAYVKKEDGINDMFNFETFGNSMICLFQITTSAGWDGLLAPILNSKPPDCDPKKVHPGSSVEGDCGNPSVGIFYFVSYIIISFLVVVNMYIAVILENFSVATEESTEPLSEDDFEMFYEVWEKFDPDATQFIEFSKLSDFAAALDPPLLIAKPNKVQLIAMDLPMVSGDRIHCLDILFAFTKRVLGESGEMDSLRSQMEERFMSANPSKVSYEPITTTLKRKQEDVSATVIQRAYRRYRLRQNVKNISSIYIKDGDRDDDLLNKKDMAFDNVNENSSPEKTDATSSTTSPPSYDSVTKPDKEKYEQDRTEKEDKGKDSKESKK", "test": "Nav1.7 block, PatchXpress 7000 automated whole-cell voltage clamp, estimated IC50 (EIC50)", "type": "cell-based", "settings": "PatchXpress platform; hSCN9A HEK cells held at V1/2 of inactivation; estimated IC50", "units": {"IC50": "µM"}, "values": [{"smiles": "O=S(=O)(Nc1cscn1)c1ccc(Oc2ccc(-c3ccccc3)cc2)c(F)c1", "note": "[Example 273, 4-(biphenyl-4-yloxy)-3-fluoro-N-thiazol-4-yl-benzenesulfonamide]", "IC50": 2.17}, {"smiles": "Cc1cccc(-c2cccc(OC(F)(F)F)c2)c1Oc1ccc(S(=O)(=O)Nc2ncns2)cc1C#N", "note": "[Example 37, 3-cyano-4-{[3-methyl-3′-(trifluoromethoxy)biphenyl-2-yl]oxy}-N-1,2,4-thiadiazol-5-ylbenzenesulfonamide]", "IC50": 30.9}, {"smiles": "NC(=O)c1cc(S(=O)(=O)Nc2nccs2)ccc1Oc1ccc(-c2cc(C(F)(F)F)n[nH]2)cc1", "note": "[Example 203, 5-(N-thiazol-2-ylsulfamoyl)-2-(4-(3-(trifluoromethyl)-1H-pyrazol-5-yl)phenoxy)benzamide]", "IC50": 7.48}, {"smiles": "CC(C)c1nn(-c2ccccc2Cl)cc1Oc1ccc(S(=O)(=O)Nc2ncc(Cl)s2)cc1C#N", "note": "[Example 140, 4-{[1-(2-chlorophenyl)-3-isopropyl-1H-pyrazol-4-yl]oxy}-N-(5-chloro-1,3-thiazol-2-yl)-3-cyanobenzenesulfonamide]", "IC50": 3.41}]}, {"biological_target": "T1, Nav1.7 (or SCN9A) channel; HEK cells stably transfected with hSCN9A", "test": "Nav1.7 block, PatchXpress 7000 automated whole-cell voltage clamp, estimated IC50 (EIC50)", "type": "cell-based", "settings": "estimated IC50; hSCN9A HEK cells, PatchXpress platform; Examples 283-814", "units": {"IC50": "µM"}, "values": [{"smiles": "N#Cc1cc(S(=O)(=O)Nc2ncc(F)s2)ccc1Oc1ccc(Cl)c(Cn2ccnc2)c1", "note": "[Example 530, 4-[4-chloro-3-(1H-imidazol-1-ylmethyl)phenoxy]-3-cyano-N-(5-fluoro-1,3-thiazol-2-yl)benzenesulfonamide]", "IC50": 0.23}, {"smiles": "N#Cc1cc(S(=O)(=O)Nc2ncns2)ccc1Oc1ccc(C(F)(F)F)cc1-c1ccn[nH]1", "note": "[Example 741, 3-cyano-4-[2-(1H-pyrazol-5-yl)-4-(trifluoromethyl)phenoxy]-N-1,2,4-thiadiazol-5-ylbenzenesulfonamide]", "IC50": 0.0078}, {"smiles": "Nc1n[nH]cc1-c1cc(Cl)ccc1Oc1cc(F)c(S(=O)(=O)Nc2nncs2)cc1Cl", "note": "[Example 803, 4-[2-(5-amino-1H-pyrazol-4-yl)-4-chlorophenoxy]-5-chloro-2-fluoro-N-1,3,4-thiadiazol-2-ylbenzenesulfonamide]", "IC50": 0.0048}, {"smiles": "Cn1nccc1-c1cc(Cl)ccc1Oc1cc(F)c(S(=O)(=O)Nc2nncs2)cc1F", "note": "[Example 301, 4-[4-chloro-2-(1-methyl-1H-pyrazol-5-yl)phenoxy]-2,5-difluoro-N-1,3,4-thiadiazol-2-ylbenzenesulfonamide]", "IC50": 0.28}, {"smiles": "O=S(=O)(Nc1ncns1)c1cc(Cl)c(Oc2ccc(Cl)cc2C2CNC2)cc1F", "note": "[Example 619, 4-(2-azetidin-3-yl-4-chlorophenoxy)-5-chloro-2-fluoro-N-1,2,4-thiadiazol-5-ylbenzenesulfonamide]", "IC50": 0.045}, {"smiles": "COc1cc(Oc2ccc(S(=O)(=O)Nc3ccc(F)cn3)cc2C#N)ccc1-n1ccnc1C", "note": "[Example 578, 3-cyano-N-(5-fluoropyridin-2-yl)-4-[3-methoxy-4-(2-methyl-1H-imidazol-1-yl)phenoxy]benzenesulfonamide]", "IC50": 5.5}, {"smiles": "N#Cc1cc(S(=O)(=O)Nc2nccs2)ccc1Oc1ccc(Cn2cccn2)cc1F", "note": "[Example 642, 3-cyano-4-[2-fluoro-4-(1H-pyrazol-1-ylmethyl)phenoxy]-N-1,3-azol-2-ylbenzenesulfonamide]", "IC50": 2.6}, {"smiles": "O=S(=O)(Nc1cscn1)c1cc(Cl)c(Oc2ccc(F)cc2-c2ccn[nH]2)cc1F", "note": "[Example 658, 5-chloro-2-fluoro-4-[4-fluoro-2-(1H-pyrazol-5-yl)phenoxy]-N-1,3-thiazol-4-ylbenzenesulfonamide]", "IC50": 0.25}, {"smiles": "Cn1nccc1-c1cc(Cl)ccc1Oc1ccc(S(=O)(=O)Nc2ncc(C#N)cn2)cc1C#N", "note": "[Example 463, 4-[4-chloro-2-(1-methyl-1H-pyrazol-5-yl)phenoxy]-3-cyano-N-(5-cyanopyrimidin-2-yl)benzenesulfonamide]", "IC50": 22}, {"smiles": "CN(C)C(=O)c1cnn(-c2ccc(Oc3ccc(S(=O)(=O)Nc4nccs4)cc3C#N)cc2)c1", "note": "[Example 375, 1-(4-{2-cyano-4-[(1,3-thiazol-2-ylamino)sulfonyl]phenoxy}phenyl)-N,N-dimethyl-1H-pyrazole-4-carboxamide]", "IC50": ">1"}, {"smiles": "N#Cc1cc(S(=O)(=O)Nc2nccs2)ccc1Oc1ccc(Cl)cc1-c1[nH]ncc1F", "note": "[Example 710, 4-[4-chloro-2-(4-fluoro-1H-pyrazol-5-yl)phenoxy]-3-cyano-N-1,3-thiazol-2-ylbenzenesulfonamide]", "IC50": 0.088}, {"smiles": "N#Cc1cc(S(=O)(=O)Nc2ncccc2F)ccc1Oc1ccccc1-c1ccccc1", "note": "[Example 420, 4-(biphenyl-2-yloxy)-3-cyano-N-(3-fluoropyridin-2-yl)benzenesulfonamide]", "IC50": 24}]}, {"biological_target": "T1, Nav1.7 (or SCN9A) channel; HEK cells stably transfected with hSCN9A", "test": "Nav1.7 block, PatchXpress 7000 automated whole-cell voltage clamp, estimated IC50 (EIC50)", "type": "cell-based", "settings": "estimated IC50; hSCN9A HEK cells, PatchXpress platform; Examples 815-1040", "units": {"IC50": "µM"}, "values": [{"smiles": "Cc1[nH]ncc1-c1cc(Cl)c(F)cc1Oc1ccc(S(=O)(=O)Nc2ncns2)cc1C#N", "note": "[Example 863, 4-[4-chloro-5-fluoro-2-(5-methyl-1H-pyrazol-4-yl)phenoxy]-3-cyano-N-1,2,4-thiadiazol-5-ylbenzenesulfonamide]", "IC50": 0.0031}, {"smiles": "Nc1cc(-c2cc(Cl)ccc2Oc2cc(F)c(S(=O)(=O)Nc3cccnn3)cc2Cl)ccn1", "note": "[Example 1031, 4-[2-(2-aminopyridin-4-yl)-4-chlorophenoxy]-5-chloro-2-fluoro-N-pyridazin-3-ylbenzenesulfonamide]", "IC50": 0.029}, {"smiles": "N#Cc1cc(S(=O)(=O)Nc2ncc(Cl)s2)ccc1Oc1cc(F)ccc1-c1ccn[nH]1", "note": "[Example 992, N-(5-chloro-1,3-thiazol-2-yl)-3-cyano-4-[5-fluoro-2-(1H-pyrazol-5-yl)phenoxy]benzenesulfonamide]", "IC50": 0.54}, {"smiles": "O=S(=O)(Nc1nncs1)c1cc(F)c(Oc2ccc(Cl)cc2-c2cc(N3CCOCC3)ncn2)cc1F", "note": "[Example 873, 4-[4-chloro-2-(6-morpholin-4-ylpyrimidin-4-yl)phenoxy]-2,5-difluoro-N-1,3,4-thiadiazol-2-ylbenzenesulfonamide]", "IC50": 3.9}, {"smiles": "N#Cc1cc(S(=O)(=O)Nc2ncns2)ccc1Oc1ccc(Cl)cc1-c1ccsn1", "note": "[Example 905, 4-(4-chloro-2-isothiazol-3-ylphenoxy)-3-cyano-N-1,2,4-thiadiazol-5-ylbenzenesulfonamide]", "IC50": 0.19}, {"smiles": "Cc1nn(C(C)(C)C)cc1-c1cc(Cl)ccc1Oc1cc(F)c(S(=O)(=O)Nc2nncs2)cc1Cl", "note": "[Example 982, 4-[2-(1-tert-butyl-3-methyl-1H-pyrazol-4-yl)-4-chlorophenoxy]-5-chloro-2-fluoro-N-1,3,4-thiadiazol-2-ylbenzenesulfonamide]", "IC50": ">0.3"}, {"smiles": "Cc1nnc(NS(=O)(=O)c2cc(Cl)c(Oc3ccc(Cl)cc3-c3ccnn3C)cc2F)s1", "note": "[Example 817, 5-chloro-4-[4-chloro-2-(1-methyl-1H-pyrazol-5-yl)phenoxy]-2-fluoro-N-(5-methyl-1,3,4-thiadiazol-2-yl)benzenesulfonamide]", "IC50": 0.3}, {"smiles": "Cc1nnc(NS(=O)(=O)c2ccc(Oc3ccc(Cl)cc3-c3ccnn3C)c(C#N)c2)s1", "note": "[Example 888, 4-[4-chloro-2-(1-methyl-1H-pyrazol-5-yl)phenoxy]-3-cyano-N-(5-methyl-1,3,4-thiadiazol-2-yl)benzenesulfonamide]", "IC50": 0.92}, {"smiles": "O=C(c1cccc(-c2cc(Cl)ccc2Oc2cc(F)c(S(=O)(=O)Nc3ncns3)cc2Cl)n1)N1CCC1", "note": "[Example 859, 4-{2-[6-(azetidin-1-ylcarbonyl)pyridin-2-yl]-4-chlorophenoxy}-5-chloro-2-fluoro-N-1,2,4-thiadiazol-5-ylbenzenesulfonamide]", "IC50": 0.0044}, {"smiles": "CN(C)C(=O)c1cccc(-c2ccccc2)c1Oc1ccc(S(=O)(=O)Nc2ncns2)cc1C#N", "note": "[Example 1008, 2-{2-cyano-4-[(1,2,4-thiadiazol-5-ylamino)sulfonyl]phenoxy}-N,N-dimethylbiphenyl-3-carboxamide]", "IC50": 0.74}]}]}
